From ChEMBL document CHEMBL1137751, “Molecular hybridization, synthesis, and biological evaluation of novel chroman I(Kr) and I(Ks) dual blockers” (Bioorg Med Chem Lett, 2009)
The source made the active and inactive calls. The rule behind the calls is not given here.

Tests used:
[1] = test system: Heart; test: Antiarrhythmic activity in langendorff ischemia-reperfused Sprague-Dawley rat heart assessed as cardiac protection at 1 uM; assay type: functional, tissue-based
[2] = test system: Heart; test: Cardioprotective effect in isolated langendorff ischemia-reperfused Sprague-Dawley rat heart assessed as reduction of heart rate at 1 uM after 20 mins by RR interval ECG signal; assay type: functional; set-up: scale not given: the % may be the effect or the level left
[3] = test system: Heart; test: Cardioprotective effect in isolated langendorff ischemia-reperfused Sprague-Dawley rat heart assessed as duration of QT intervals at 1 uM after 20 mins; assay type: functional
[4] = test system: Heart; test: Cardioprotective effect in isolated langendorff ischemia-reperfused Sprague-Dawley rat heart assessed as duration of QTc intervals at 1 uM after 20 mins; assay type: functional
[5] = test system: Heart; test: Antiarrhythmic activity in langendorff ischemia-reperfused Sprague-Dawley rat heart assessed as cardiac protection at 3 uM; assay type: functional, tissue-based
[6] = test system: Heart; test: AUC in isolated langendorff ischemia-reperfused Sprague-Dawley rat heart at 1 uM; assay type: ADME, tissue-based
[7] = test system: Heart; test: Cardioprotective effect in isolated langendorff ischemia-reperfused Sprague-Dawley rat heart assessed as reduction of heart rate at 0.3 uM after 20 mins by RR interval ECG signal; assay type: functional
[8] = test system: Heart; test: Cardioprotective effect in isolated langendorff ischemia-reperfused Sprague-Dawley rat heart assessed as duration of QT intervals at 0.3 uM after 20 mins; assay type: functional
[9] = test system: Heart; test: Cardioprotective effect in isolated langendorff ischemia-reperfused Sprague-Dawley rat heart assessed as duration of QTc intervals at 0.3 uM after 20 mins; assay type: functional
[10] = test system: Heart; test: Cardioprotective effect in isolated langendorff ischemia-reperfused Sprague-Dawley rat heart assessed as reduction of heart rate at 3 uM after 20 mins by RR interval ECG signal; assay type: functional
[11] = test system: Heart; test: Cardioprotective effect in isolated langendorff ischemia-reperfused Sprague-Dawley rat heart assessed as duration of QT intervals at 3 uM after 20 mins; assay type: functional
[12] = test system: Heart; test: Cardioprotective effect in isolated langendorff ischemia-reperfused Sprague-Dawley rat heart assessed as duration of QTc intervals at 3 uM after 20 mins; assay type: functional
[13] = molecular target: T1, Voltage-gated inwardly rectifying potassium channel KCNH2 (Cavia porcellus, UniProt O08703); test: Inhibition of ERG in guinea pig ventricular myocytes assessed as blockade of rapid delayed rectifier potassium current by whole cell patch-clamp technique
T1 sequence (O08703 whole entry): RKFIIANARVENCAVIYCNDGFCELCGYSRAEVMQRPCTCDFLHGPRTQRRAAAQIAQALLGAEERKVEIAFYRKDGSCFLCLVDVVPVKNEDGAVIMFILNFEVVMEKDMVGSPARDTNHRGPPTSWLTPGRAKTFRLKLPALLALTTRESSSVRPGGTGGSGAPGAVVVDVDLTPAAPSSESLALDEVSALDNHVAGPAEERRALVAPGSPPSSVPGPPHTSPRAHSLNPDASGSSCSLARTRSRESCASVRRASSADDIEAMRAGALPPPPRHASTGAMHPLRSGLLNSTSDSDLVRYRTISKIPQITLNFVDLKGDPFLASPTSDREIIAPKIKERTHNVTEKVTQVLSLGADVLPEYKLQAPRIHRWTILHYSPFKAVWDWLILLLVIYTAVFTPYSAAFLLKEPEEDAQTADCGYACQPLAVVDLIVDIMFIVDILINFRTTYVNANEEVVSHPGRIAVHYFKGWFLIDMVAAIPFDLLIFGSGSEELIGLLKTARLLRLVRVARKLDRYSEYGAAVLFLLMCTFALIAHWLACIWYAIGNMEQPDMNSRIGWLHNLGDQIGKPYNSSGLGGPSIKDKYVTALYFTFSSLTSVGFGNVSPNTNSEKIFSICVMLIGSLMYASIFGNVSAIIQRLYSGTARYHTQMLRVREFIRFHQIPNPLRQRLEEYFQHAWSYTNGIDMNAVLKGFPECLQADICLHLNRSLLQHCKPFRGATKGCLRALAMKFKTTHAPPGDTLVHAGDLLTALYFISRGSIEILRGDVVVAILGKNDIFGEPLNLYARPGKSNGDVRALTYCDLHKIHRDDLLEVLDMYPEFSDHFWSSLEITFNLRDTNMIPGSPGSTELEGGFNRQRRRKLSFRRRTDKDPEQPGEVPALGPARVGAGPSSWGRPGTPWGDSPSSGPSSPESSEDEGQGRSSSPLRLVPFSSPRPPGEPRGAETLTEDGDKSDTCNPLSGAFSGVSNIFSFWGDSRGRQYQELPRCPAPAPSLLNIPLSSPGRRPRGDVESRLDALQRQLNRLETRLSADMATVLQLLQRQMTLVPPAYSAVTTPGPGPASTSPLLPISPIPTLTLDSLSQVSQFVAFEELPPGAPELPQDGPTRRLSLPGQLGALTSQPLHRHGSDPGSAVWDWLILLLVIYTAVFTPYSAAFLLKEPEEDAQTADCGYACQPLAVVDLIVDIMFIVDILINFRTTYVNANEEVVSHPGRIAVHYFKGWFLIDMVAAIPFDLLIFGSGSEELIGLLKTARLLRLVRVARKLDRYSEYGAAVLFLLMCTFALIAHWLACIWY

[14] = molecular target: T2, Potassium voltage-gated channel subfamily KQT member 1 (Cavia porcellus, UniProt O70344); test: Inhibition of KVLQT1/minK in guinea pig ventricular myocytes assessed as blockade of slow delayed rectifier potassium current by whole cell patch-clamp technique; assay type: cell-based, Ventricular myocyte
T2 sequence (O70344 whole entry): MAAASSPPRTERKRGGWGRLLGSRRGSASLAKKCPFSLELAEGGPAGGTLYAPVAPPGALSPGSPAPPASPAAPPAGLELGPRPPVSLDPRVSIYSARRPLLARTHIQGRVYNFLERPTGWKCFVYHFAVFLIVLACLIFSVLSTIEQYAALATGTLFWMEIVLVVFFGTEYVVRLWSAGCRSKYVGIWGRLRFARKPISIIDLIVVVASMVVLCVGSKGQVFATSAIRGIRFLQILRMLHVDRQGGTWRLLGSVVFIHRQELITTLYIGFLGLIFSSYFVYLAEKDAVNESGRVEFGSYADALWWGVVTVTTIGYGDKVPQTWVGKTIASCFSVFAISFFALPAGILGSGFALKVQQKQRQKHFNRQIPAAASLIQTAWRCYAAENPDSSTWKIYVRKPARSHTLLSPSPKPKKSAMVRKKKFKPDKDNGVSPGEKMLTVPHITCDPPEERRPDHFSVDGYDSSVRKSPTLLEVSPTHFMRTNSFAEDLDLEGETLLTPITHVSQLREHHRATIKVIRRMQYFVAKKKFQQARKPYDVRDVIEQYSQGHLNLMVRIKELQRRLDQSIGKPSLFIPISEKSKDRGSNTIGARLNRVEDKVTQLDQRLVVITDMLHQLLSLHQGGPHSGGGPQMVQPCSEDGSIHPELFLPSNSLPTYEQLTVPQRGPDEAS

SMILES | Activity [1] | Activity [2] [%] | Activity [3] [%] | Activity [4] | IC50 [13] [µM] | IC50 [14] [µM] | other results
CCCCc1oc2ccccc2c1C(=O)c1cc(I)c(OCCN(CC)CC)c(I)c1 [AMIODARONE] | Active | 17 | 12 | 13% | – | – | –
CCCOc1ccc2c(c1)/C(=N/N1CC(=O)N(CCCN3CCN(C)CC3)C1=O)CCO2 | Active | 18 | 13 | 2% | – | – | Activity [5]: Active; Activity [6]: Dose-dependent effect; Activity [7]: 198 bpm; Activity [8]: 186.7 ms; Activity [9]: 326.1 ms/s1/2; Activity [10]: 179 bpm; Activity [11]: 248 ms; Activity [12]: 400.9 ms/s1/2
O=C1CN(/N=C2\CCOc3ccc(O)cc32)C(=O)N1CCCCN1CCCCC1 | – | – | – | – | > 10 | 5.4 | –
CN1CCN(CCCN2C(=O)CN(/N=C3\CCOc4ccc(Cl)cc43)C2=O)CC1 | – | – | – | – | 3.87 | 0.0058 | –
CCOc1ccc2c(c1)/C(=N/N1CC(=O)N(CCCCN3CCN(C)CC3)C1=O)CCO2 | – | – | – | – | 6.15 | > 10 | –
CN1CCN(CCCCN2C(=O)CN(/N=C/c3ccc(-c4ccc(Cl)cc4)o3)C2=O)CC1 [AZIMILIDE] | Active | 12 | 8 | 316.7 ms/s1/2 | 0.18 | 0.24 | –
CN1CCN(CCCCN2C(=O)CN(/N=C3\CCOc4ccc(O)cc43)C2=O)CC1 | – | – | – | – | > 100 | 60 | –
Cc1ccc2c(c1)/C(=N/N1CC(=O)N(CCCCN3CCN(C)CC3)C1=O)CCO2 | – | – | – | – | > 10 | > 100 | –
